Experimental data as given in ChEMBL document CHEMBL4007472, “Identification of novel TACE inhibitors compatible with topical application” (Bioorg Med Chem Lett, 2017).
pIC50: −log10 of the molar value.

How the values were obtained:
[1] = target: T1, Disintegrin and metalloproteinase domain-containing protein 17 (Homo sapiens, UniProt P78536); test: Inhibition of recombinant human TACE catalytic domain using Mca-Pro-Leu-Ala-Gln-Ala-Val-Dpa-Arg-Ser-Ser-Ser-Arg-NH2 as substrate after 2 hrs by fluorescence assay
T1 sequence (P78536 whole entry, the tested form may be a part): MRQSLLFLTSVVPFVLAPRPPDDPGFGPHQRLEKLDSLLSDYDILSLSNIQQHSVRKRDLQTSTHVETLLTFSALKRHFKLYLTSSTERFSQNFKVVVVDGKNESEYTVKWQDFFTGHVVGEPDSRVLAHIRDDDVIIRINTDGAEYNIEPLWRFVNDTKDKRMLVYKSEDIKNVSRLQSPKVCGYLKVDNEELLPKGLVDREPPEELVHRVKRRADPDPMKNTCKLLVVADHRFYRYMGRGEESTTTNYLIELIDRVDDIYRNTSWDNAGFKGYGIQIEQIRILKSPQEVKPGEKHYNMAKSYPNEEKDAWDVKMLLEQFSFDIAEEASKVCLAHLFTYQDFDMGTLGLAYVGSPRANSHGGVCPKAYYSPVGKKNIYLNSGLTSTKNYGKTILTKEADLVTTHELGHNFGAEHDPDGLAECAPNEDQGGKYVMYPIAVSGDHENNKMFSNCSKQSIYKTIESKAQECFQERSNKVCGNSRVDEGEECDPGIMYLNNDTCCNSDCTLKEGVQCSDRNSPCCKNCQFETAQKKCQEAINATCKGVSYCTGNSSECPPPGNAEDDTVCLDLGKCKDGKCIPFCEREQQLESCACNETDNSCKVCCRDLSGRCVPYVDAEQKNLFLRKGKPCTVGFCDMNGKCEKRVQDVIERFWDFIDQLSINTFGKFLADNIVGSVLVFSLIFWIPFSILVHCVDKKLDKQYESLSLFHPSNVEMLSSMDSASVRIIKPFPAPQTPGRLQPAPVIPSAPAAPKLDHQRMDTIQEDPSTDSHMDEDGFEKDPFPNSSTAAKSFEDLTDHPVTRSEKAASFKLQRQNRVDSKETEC

[2] = target: Disintegrin and metalloproteinase domain-containing protein 17 (Mus musculus, UniProt Q9Z0F8); test: Inhibition of TACE in mouse RAW264.7 cells assessed as inhibition of LPS-stimulated TNFalpha production pretreated for 1 hr followed by LPS stimulation for 4 hrs by ELISA; type: cell-based; settings: for pIC50: read-out: IC50
Disintegrin and metalloproteinase domain-containing protein 17 (Mus musculus, UniProt Q9Z0F8), sequence (Q9Z0F8 whole entry, the tested form may be a part): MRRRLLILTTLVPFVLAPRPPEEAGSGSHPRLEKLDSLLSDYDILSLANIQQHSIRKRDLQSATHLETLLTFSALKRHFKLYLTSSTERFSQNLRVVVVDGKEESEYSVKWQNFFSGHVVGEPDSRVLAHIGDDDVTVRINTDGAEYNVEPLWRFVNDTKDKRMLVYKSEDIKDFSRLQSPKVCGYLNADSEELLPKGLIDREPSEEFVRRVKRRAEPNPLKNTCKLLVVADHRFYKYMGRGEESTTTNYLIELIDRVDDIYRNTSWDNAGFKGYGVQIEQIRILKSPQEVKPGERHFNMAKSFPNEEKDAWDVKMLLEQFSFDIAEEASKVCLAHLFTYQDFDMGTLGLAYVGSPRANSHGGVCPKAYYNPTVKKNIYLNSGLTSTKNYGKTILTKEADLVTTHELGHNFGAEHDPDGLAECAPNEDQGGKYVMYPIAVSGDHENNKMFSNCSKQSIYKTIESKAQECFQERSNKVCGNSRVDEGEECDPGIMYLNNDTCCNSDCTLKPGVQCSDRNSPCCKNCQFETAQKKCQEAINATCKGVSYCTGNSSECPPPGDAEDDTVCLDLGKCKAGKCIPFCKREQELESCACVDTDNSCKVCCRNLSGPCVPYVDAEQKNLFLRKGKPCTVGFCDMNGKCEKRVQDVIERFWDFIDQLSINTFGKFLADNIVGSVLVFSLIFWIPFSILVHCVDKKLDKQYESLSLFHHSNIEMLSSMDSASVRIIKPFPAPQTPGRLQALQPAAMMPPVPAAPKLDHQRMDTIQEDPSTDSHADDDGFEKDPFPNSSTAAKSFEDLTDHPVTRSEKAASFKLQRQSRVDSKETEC

[3] = target: T1, Disintegrin and metalloproteinase domain-containing protein 17; test: Inhibition of recombinant TACE catalytic domain (unknown origin) using Abz-LAQAVRSSSR-Dpa as substrate preincubated for 10 mins followed by substrate addition measured after 10 mins by FRET assay; settings: for IC50: read-out: pIC50 (converted); for pIC50: read-out: IC50

Structure (SMILES) | pIC50 [1] | pIC50 [2] | further results
CC(=O)N1C[C@@H](S(=O)(=O)c2ccc(OCc3cc(C)nc4c3CCCC4)cc2)C[C@@H]1C(=O)NO | < 5.00 |  | 
Cc1cc(COc2ccc(S(=O)(=O)N[C@@H]3CCN(C=O)C[C@]3(O)C(=O)NO)cc2)c2ccccc2n1 |  | 6.80 | IC50 [3]: 0.00126 µM
CC(=O)N1CCC(C(=O)NO)C(NS(=O)(=O)c2ccc(OCc3cc(C)nc4ccccc34)cc2)C1 (stereo unspecified) |  | 6.69 | IC50 [3]: 0.00126 µM
Cc1cc(COc2ccc(S(=O)(=O)N[C@@H]3CN(C=O)C[C@@H]3C(=O)NO)cc2)c2ccccc2n1 (relative stereo) |  | 7.70 | 
Cc1cc(COc2ccc(S(=O)(=O)N[C@@H]3CCC[C@]3(F)C(=O)NO)cc2)c2ccccc2n1 |  | 7.72 | pIC50 [3]: 9.22
Cc1cc(COc2ccc(S(=O)(=O)N[C@@H]3CCN(C=O)C[C@@H]3C(=O)NO)cc2)c2ccccc2n1 |  | 8.15 | 
Cc1cc(COc2ccc(S(=O)(=O)N[C@@H]3CCN(C=O)C[C@]3(C)C(=O)NO)cc2)c2ccccc2n1 |  | 6.00 | pIC50 [3]: 9.22
Cc1cc(COc2ccc(S(=O)(=O)N(C)[C@@H]3[C@@H]4CC[C@@H](C4)[C@@H]3C(=O)NO)cc2)c2ccccc2n1 |  | 7.28 | IC50 [3]: 0.001 µM
CC(=O)N1CCN(S(=O)(=O)c2ccc(OCc3cc(C)nc4c3CCCC4)cc2)CC1(C)C(=O)NO (stereo unspecified) | 7.52 |  | 
Cc1cc(COc2ccc(S(=O)(=O)N(C)[C@@H]3CCC[C@]3(CO)C(=O)NO)cc2)c2ccccc2n1 |  | 6.36 | pIC50 [3]: 9.22
Cc1cc(COc2ccc(S(=O)(=O)NC3CCN(CCO)CC3C(=O)NO)cc2)c2ccccc2n1 (stereo unspecified) |  | 6.74 | IC50 [3]: 0.00316 µM
Cc1cc(COc2ccc(S(=O)(=O)N[C@H]3CCCC[C@@H]3C(=O)NO)cc2)c2ccccc2n1 (relative stereo) |  | 7.22 | pIC50 [3]: 8.74
Cc1cc(COc2ccc(S(=O)(=O)N(C)[C@H]3CCCC[C@@H]3C(=O)NO)cc2)c2ccccc2n1 (relative stereo) |  | 6.04 | pIC50 [3]: 8.85
Cc1cc(COc2ccc(S(=O)(=O)N3CCOC(C(=O)NO)C3)cc2)c2ccccc2n1 (stereo unspecified) | 6.74 |  | 
Cc1cc(COc2ccc(S(=O)(=O)N[C@@H]3CCOC[C@]3(C)C(=O)NO)cc2)c2ccccc2n1 |  | 5.78 | 
C#CCN1C[C@H](C(=O)NO)[C@H](NS(=O)(=O)c2ccc(OCc3cc(C)nc4ccccc34)cc2)C1 (relative stereo) |  | 7.05 | 
Cc1cc(COc2ccc(S(=O)(=O)N[C@@H]3CN(C(=O)OC(C)(C)C)CC[C@H]3C(=O)NO)cc2)c2ccccc2n1 |  | 7.24 | pIC50 [3]: 9.15
Cc1cc(COc2ccc(S(=O)(=O)N(C)C3C(C(=O)NO)[C@@H]4CC[C@H]3O4)cc2)c2ccccc2n1 (relative stereo; form 1) |  | 6.60 | pIC50 [3]: 7.37
Cc1cc(COc2ccc(S(=O)(=O)N[C@@H]3CCOC[C@@]3(C)C(=O)NO)cc2)c2ccccc2n1 |  | 5.72 | IC50 [3]: 0.00631 µM
Cc1cc(COc2ccc(S(=O)(=O)N(C)C3C(C(=O)NO)[C@@H]4CC[C@H]3O4)cc2)c2ccccc2n1 (relative stereo; form 2) |  | 7.74 | pIC50 [3]: 8.70

Structure (SMILES) | pIC50 [1] | pIC50 [2] | further results
CC(=O)N1CCCN(S(=O)(=O)c2ccc(OCc3cc(C)nc4ccccc34)cc2)CC1C(=O)NO (stereo unspecified) | 6.70 |  | 
Cc1cc(COc2ccc(S(=O)(=O)N[C@H]3CCN(C(=O)NC(C)(C)C)C[C@H]3C(=O)NO)cc2)c2ccccc2n1 (relative stereo) |  | 7.52 | pIC50 [3]: 9.22
Cc1cc(COc2ccc(S(=O)(=O)N(C)[C@@H]3CCC[C@@H]3C(=O)NO)cc2)c2ccccc2n1 (relative stereo) |  | 7.03 | pIC50 [3]: 9.22
CC(=O)N1C[C@H](S(=O)(=O)c2ccc(OCc3cc(C)nc4c3CCCC4)cc2)C[C@H]1C(=O)NO | 5.44 |  | 
Cc1cc(COc2ccc(S(=O)(=O)N[C@@H]3CCNC[C@]3(O)C(=O)NO)cc2)c2ccccc2n1 |  | 6.00 | IC50 [3]: 0.1 µM
CC#CCOc1ccc(S(=O)(=O)[C@H]2C[C@H](C(=O)NO)N(C(C)=O)C2)cc1 | < 5.00 |  | 
Cc1cc(COc2ccc(S(=O)(=O)N[C@@H]3CCC[C@@H]3C(=O)NO)cc2)c2ccccc2n1 (relative stereo) |  | 7.96 to 8.05 | IC50 ([2]; read-out: pIC50 (converted)): 0.01 µM; IC50 [3]: 0.000631 µM
Cc1cc(COc2ccc(S(=O)(=O)N3CCNC(C(=O)NO)C3)cc2)c2c(n1)CCCC2 (stereo unspecified) | 6.96 |  | 
C#CCN1CC[C@@H](NS(=O)(=O)c2ccc(OCc3cc(C)nc4ccccc34)cc2)[C@@](C)(C(=O)NO)C1 |  | 6.00 | IC50 [3]: 0.02 µM
CC(=O)N1CC[C@@H](NS(=O)(=O)c2ccc(OCc3cc(C)nc4ccccc34)cc2)[C@@](C)(C(=O)NO)C1 |  | 6.00 | IC50 [3]: 0.00631 µM
CCC1(C(=O)NO)CCN(S(=O)(=O)c2ccc(OCc3cc(C)nc4ccccc34)cc2)C1 (stereo unspecified) | 7.80 |  | 
Cc1cc(COc2ccc(S(=O)(=O)N(C)[C@@H]3CCOC[C@@H]3C(=O)NO)cc2)c2ccccc2n1 (relative stereo) |  | 6.00 | 
Cc1cc(COc2ccc(S(=O)(=O)N[C@@H]3[C@H]4CC[C@H](C4)[C@@H]3C(=O)NO)cc2)c2ccccc2n1 |  | 7.74 | pIC50 [3]: 9.22
CC#CCOc1ccc(S(=O)(=O)N2CCC(C(=O)NO)C2)cc1 (stereo unspecified) | < 5.00 |  | 
CC#CCOc1ccc(S(=O)(=O)[C@@H]2C[C@H](C(=O)NO)N(C(C)=O)C2)cc1 | < 5.00 |  | 
CC[C@]1(C(=O)NO)CCC[C@H]1NS(=O)(=O)c1ccc(OCc2cc(C)nc3ccccc23)cc1 |  | 6.00 | IC50 [3]: 0.00251 µM
CC(=O)N1CCC(NS(=O)(=O)c2ccc(OCc3cc(C)nc4ccccc34)cc2)C(C(=O)NO)C1 (stereo unspecified) |  | 7.70 | IC50 [3]: 0.001 µM
CC(=O)N1CCN(C(=O)c2ccc(OCc3cc(C)nc4c3CCCC4)cc2)CC1C(=O)NO (stereo unspecified) | 6.12 |  | 
CC(=O)N1C[C@H](S(=O)(=O)c2ccc(OCc3cc(C)nc4c3CCCC4)cc2)C[C@@H]1C(=O)NO | < 5.00 |  | 
Cc1cc(COc2ccc(S(=O)(=O)N[C@@H]3CN(C=O)CCC3C(=O)NO)cc2)c2ccccc2n1 (stereo partly specified) |  | 7.68 | 

Structure (SMILES) | pIC50 [1] | pIC50 [2] | further results
Cc1cc(COc2ccc(S(=O)(=O)N[C@@H]3CNC[C@@H]3C(=O)NO)cc2)c2ccccc2n1 (relative stereo) |  | 7.05 | pIC50 [3]: 8.33
CC(=O)N1C[C@H](C(=O)NO)[C@H](NS(=O)(=O)c2ccc(OCc3cc(C)nc4ccccc34)cc2)C1 (relative stereo) |  | 7.70 | pIC50 [3]: 9.22
Cc1cc(COc2ccc(S(=O)(=O)N(C)[C@H]3[C@@H](C(=O)NO)[C@@H]4CC[C@H]3O4)cc2)c2ccccc2n1 |  | 8.00 | IC50 [3]: 0.001 µM
Cc1cc(COc2ccc(S(=O)(=O)N3CCC(Cc4ccccc4)(C(=O)NO)C3)cc2)c2ccccc2n1 (stereo unspecified) | 7.38 |  | 
Cc1cc(COc2ccc(S(=O)(=O)N[C@@H]3CN(C(=O)NC(C)(C)C)CC[C@@H]3C(=O)NO)cc2)c2ccccc2n1 |  | 7.24 | IC50 [3]: 0.00126 µM
Cc1cc(COc2ccc(S(=O)(=O)N3CCCOC(C(=O)NO)C3)cc2)c2ccccc2n1 (stereo unspecified) | 7.15 |  | 
Cc1cc(COc2ccc(S(=O)(=O)N[C@@H]3CCN(C(=O)OC(C)(C)C)C[C@@H]3C(=O)NO)cc2)c2ccccc2n1 |  | 6.34 | pIC50 [3]: 9.30
CC#CCOc1ccc(C(=O)N2CCC(C(=O)NO)C2)cc1 (stereo unspecified) | < 5.00 |  | 
Cc1cc(COc2ccc(S(=O)(=O)N[C@]3(C)CCCC[C@@H]3C(=O)NO)cc2)c2ccccc2n1 (racemic) |  | 7.60 | pIC50 [3]: 9.22
Cc1cc(COc2ccc(S(=O)(=O)N[C@@H]3CCC[C@]3(C)C(=O)NO)cc2)c2ccccc2n1 |  | 6.57 | pIC50 [3]: 9.22
Cc1cc(COc2ccc(S(=O)(=O)N[C@@H]3CCN(S(=O)(=O)C(C)C)C[C@]3(C)C(=O)NO)cc2)c2ccccc2n1 |  | 6.12 | IC50 [3]: 0.00251 µM
CC#CCOc1ccc(S(=O)(=O)[C@@H]2C[C@@H](C(=O)NO)N(C(C)=O)C2)cc1 | 5.00 |  | 
CC#CCOc1ccc(S(=O)(=O)[C@H]2C[C@@H](C(=O)NO)N(C(C)=O)C2)cc1 | < 5.00 |  | 
Cc1cc(COc2ccc(S(=O)(=O)N[C@@H]3CCC[C@]3(O)C(=O)NO)cc2)c2ccccc2n1 |  | 7.09 | 
Cc1cc(COc2ccc(S(=O)(=O)N3CCC(CC(C)C)(C(=O)NO)C3)cc2)c2ccccc2n1 (stereo unspecified) | 7.46 |  | 
CC#CCOc1ccc(S(=O)(=O)N2CCN(C(C)=O)C(C(=O)NO)C2)cc1 (stereo unspecified) | 5.82 |  | 
Cc1cc(COc2ccc(S(=O)(=O)N(C)[C@@H]3CC=CC[C@@H]3C(=O)NO)cc2)c2ccccc2n1 (relative stereo) |  | 6.00 | 
Cc1cc(COc2ccc(S(=O)(=O)N[C@@H]3CCOC[C@@H]3C(=O)NO)cc2)c2ccccc2n1 (relative stereo) |  | 7.77 | 
Cc1cc(COc2ccc(C(=O)N3CCC(C(=O)NO)C3)cc2)c2c(n1)CCCC2 (stereo unspecified) | 5.19 |  | 
Cc1cc(COc2ccc(S(=O)(=O)N3CCCC(C)(C(=O)NO)C3)cc2)c2c(n1)CCCC2 (stereo unspecified) | 7.40 |  | 
